In ChEMBL document CHEMBL5465560, “Selectivity Literature for EUbOPEN Chemogenomic Library” (2024) one finds % of control and % of inhibition data, which are given here for 6 molecules.

For experiment [1], the target named is Tyrosine-protein kinase Fyn (Homo sapiens) (UniProt P06241). The conditions noted are these: at 10 µM.
Experiment [2] deals with Tyrosine-protein kinase ABL1 (Homo sapiens), P00519 [F317I]. The conditions noted are these: at 10 µM.
The target in experiment [3] is T1, Megakaryocyte-associated tyrosine-protein kinase (Homo sapiens) (UniProt P42679).
T1 sequence (whole entry): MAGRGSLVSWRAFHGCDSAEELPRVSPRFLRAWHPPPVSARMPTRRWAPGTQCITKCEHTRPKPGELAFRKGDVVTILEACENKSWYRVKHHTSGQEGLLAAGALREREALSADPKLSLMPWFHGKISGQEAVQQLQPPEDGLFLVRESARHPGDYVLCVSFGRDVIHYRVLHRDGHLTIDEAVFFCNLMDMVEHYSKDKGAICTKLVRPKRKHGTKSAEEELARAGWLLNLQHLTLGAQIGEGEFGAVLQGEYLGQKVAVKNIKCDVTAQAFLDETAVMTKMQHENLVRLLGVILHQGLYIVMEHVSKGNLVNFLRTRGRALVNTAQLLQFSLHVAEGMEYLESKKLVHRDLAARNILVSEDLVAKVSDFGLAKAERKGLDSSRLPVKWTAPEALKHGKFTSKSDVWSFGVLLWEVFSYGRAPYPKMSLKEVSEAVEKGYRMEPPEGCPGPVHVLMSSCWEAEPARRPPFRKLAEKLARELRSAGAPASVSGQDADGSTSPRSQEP
To be noted: at 10 µM.

In experiment [4] the target is T2, Homeodomain-interacting protein kinase 4 (Homo sapiens) (UniProt Q8NE63).
T2 sequence (whole entry): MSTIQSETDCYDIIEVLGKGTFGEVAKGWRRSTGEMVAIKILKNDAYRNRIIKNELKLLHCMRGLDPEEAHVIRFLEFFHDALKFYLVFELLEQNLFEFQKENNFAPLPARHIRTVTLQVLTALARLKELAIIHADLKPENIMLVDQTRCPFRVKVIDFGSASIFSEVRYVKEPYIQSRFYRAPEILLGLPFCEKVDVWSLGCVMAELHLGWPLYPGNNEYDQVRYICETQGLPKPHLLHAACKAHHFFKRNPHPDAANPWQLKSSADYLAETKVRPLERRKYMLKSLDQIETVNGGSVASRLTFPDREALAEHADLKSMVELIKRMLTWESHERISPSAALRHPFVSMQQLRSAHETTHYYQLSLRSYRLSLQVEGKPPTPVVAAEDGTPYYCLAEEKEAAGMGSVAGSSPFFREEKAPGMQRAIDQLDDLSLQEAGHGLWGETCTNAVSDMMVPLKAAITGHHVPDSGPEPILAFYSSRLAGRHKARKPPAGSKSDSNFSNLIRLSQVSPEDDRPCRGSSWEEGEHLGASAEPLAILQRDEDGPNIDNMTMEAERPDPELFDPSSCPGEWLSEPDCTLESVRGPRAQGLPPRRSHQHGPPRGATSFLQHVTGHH
To be noted: at 10 µM.

The target of experiment [5] is T3, Serine/threonine-protein kinase 36 (Homo sapiens) (UniProt Q9NRP7).
T3 sequence (whole entry): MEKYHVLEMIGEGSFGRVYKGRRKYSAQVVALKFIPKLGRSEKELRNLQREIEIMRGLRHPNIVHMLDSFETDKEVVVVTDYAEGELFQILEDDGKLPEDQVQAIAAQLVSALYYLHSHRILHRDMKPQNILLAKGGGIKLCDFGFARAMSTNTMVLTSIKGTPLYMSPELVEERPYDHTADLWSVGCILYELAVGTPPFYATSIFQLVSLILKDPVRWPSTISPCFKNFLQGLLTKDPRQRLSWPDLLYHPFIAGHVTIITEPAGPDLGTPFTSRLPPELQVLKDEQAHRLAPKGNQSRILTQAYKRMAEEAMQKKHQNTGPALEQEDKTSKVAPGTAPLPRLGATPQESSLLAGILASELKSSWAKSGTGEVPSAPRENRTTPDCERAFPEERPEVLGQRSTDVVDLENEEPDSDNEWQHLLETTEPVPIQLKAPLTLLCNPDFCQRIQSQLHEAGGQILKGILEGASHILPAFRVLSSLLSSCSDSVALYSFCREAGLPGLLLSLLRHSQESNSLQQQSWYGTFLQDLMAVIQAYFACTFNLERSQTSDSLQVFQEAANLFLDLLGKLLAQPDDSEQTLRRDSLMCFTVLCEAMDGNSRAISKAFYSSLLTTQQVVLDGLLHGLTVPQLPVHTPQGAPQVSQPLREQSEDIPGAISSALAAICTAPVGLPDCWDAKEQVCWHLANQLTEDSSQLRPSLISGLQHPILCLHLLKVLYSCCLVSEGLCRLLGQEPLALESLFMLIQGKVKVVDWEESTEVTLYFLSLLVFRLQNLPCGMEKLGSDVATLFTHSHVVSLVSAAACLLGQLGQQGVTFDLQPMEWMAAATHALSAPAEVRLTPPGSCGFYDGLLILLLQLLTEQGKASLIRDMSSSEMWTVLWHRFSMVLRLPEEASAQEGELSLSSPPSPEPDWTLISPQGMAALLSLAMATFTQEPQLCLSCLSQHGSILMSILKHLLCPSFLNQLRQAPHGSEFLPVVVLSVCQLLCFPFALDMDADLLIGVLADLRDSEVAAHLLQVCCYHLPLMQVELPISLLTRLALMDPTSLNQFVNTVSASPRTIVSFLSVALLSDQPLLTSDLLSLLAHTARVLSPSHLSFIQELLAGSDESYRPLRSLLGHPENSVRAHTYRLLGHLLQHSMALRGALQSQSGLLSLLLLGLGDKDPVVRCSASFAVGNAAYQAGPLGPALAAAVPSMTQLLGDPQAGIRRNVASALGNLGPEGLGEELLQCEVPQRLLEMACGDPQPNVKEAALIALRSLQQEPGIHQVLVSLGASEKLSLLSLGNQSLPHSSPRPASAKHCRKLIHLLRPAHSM
Briefly: Selectivity interaction (KinomeScan (DiscoverX)) EUB0000666a STK36. The conditions noted are these: at 10 µM.

The target of experiment [6] is Mitogen-activated protein kinase 8 (Homo sapiens, UniProt P45983). Briefly: Selectivity interaction (KinomeScan (DiscoverX)) EUB0001619a MAPK8. The conditions noted are these: at 1 µM.
Another experiment addresses Aurora kinase B (Homo sapiens, UniProt Q96GD4). Briefly: Selectivity interaction (Kinase panel (Invitrogen)) EUB0000639a AURKB. To be noted: at 200 nM.
For experiment [7], the target named is Serine/threonine-protein kinase MRCK beta (Homo sapiens) (UniProt Q9Y5S2). Briefly: Selectivity interaction (KinomeScan (DiscoverX)) EUB0001049a CDC42BPB. To be noted: at 1 µM.
For experiment [8], the target named is Mitogen-activated protein kinase kinase kinase 20 (Homo sapiens) (UniProt Q9NYL2). Briefly: Selectivity interaction (KinomeScan (DiscoverX)) EUB0000092b MAP3K20. To be noted: at 10 µM.

Structures are written as SMILES.

Chain of Aurora kinase B (Q96GD4 whole entry): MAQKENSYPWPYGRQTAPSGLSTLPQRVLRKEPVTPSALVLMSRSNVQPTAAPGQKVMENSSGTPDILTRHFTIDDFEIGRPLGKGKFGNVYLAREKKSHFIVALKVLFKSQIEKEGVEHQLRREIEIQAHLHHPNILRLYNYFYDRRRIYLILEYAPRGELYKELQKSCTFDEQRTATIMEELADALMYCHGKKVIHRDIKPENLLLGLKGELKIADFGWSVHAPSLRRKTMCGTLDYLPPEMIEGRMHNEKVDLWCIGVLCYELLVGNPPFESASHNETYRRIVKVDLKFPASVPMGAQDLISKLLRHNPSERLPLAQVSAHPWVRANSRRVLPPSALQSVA
Chain of Mitogen-activated protein kinase kinase kinase 20 (Homo sapiens) (Q9NYL2 2-800 limits assumed): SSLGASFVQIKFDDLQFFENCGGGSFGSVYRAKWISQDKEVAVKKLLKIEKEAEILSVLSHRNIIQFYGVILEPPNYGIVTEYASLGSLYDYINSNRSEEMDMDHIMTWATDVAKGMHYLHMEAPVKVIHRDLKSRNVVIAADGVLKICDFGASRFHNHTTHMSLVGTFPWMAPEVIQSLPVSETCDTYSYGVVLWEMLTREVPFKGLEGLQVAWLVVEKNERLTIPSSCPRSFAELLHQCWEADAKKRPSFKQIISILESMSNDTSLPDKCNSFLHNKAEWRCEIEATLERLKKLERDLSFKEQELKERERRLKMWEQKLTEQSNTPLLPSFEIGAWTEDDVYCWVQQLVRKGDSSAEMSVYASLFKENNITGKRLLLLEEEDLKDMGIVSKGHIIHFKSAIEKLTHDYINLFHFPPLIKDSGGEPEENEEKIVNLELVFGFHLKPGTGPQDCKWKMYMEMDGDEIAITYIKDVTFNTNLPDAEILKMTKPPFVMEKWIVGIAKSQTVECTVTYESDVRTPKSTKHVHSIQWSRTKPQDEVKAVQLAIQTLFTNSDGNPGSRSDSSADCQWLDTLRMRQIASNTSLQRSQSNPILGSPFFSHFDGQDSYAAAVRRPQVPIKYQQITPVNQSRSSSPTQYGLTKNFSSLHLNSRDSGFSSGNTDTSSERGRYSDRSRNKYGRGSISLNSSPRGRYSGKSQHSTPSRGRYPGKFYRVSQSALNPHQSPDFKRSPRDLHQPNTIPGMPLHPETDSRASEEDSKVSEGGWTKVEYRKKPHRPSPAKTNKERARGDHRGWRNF
Chain of Tyrosine-protein kinase Fyn (Homo sapiens) (P06241 2-537 limits assumed): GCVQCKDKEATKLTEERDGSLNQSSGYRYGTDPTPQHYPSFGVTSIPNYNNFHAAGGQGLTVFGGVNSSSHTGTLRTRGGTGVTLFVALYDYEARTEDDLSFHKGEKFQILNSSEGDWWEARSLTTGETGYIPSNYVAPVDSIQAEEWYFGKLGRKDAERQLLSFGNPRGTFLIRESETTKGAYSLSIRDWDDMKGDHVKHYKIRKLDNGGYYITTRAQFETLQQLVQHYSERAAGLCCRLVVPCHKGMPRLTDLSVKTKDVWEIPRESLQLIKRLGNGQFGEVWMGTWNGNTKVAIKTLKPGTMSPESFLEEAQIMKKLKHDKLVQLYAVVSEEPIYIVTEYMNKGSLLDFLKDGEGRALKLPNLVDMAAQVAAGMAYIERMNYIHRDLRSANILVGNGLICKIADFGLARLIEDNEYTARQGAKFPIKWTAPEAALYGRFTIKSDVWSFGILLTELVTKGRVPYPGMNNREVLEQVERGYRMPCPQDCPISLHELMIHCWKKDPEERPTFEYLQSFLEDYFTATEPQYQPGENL
Chain of Serine/threonine-protein kinase MRCK beta (Homo sapiens) (Q9Y5S2 whole entry): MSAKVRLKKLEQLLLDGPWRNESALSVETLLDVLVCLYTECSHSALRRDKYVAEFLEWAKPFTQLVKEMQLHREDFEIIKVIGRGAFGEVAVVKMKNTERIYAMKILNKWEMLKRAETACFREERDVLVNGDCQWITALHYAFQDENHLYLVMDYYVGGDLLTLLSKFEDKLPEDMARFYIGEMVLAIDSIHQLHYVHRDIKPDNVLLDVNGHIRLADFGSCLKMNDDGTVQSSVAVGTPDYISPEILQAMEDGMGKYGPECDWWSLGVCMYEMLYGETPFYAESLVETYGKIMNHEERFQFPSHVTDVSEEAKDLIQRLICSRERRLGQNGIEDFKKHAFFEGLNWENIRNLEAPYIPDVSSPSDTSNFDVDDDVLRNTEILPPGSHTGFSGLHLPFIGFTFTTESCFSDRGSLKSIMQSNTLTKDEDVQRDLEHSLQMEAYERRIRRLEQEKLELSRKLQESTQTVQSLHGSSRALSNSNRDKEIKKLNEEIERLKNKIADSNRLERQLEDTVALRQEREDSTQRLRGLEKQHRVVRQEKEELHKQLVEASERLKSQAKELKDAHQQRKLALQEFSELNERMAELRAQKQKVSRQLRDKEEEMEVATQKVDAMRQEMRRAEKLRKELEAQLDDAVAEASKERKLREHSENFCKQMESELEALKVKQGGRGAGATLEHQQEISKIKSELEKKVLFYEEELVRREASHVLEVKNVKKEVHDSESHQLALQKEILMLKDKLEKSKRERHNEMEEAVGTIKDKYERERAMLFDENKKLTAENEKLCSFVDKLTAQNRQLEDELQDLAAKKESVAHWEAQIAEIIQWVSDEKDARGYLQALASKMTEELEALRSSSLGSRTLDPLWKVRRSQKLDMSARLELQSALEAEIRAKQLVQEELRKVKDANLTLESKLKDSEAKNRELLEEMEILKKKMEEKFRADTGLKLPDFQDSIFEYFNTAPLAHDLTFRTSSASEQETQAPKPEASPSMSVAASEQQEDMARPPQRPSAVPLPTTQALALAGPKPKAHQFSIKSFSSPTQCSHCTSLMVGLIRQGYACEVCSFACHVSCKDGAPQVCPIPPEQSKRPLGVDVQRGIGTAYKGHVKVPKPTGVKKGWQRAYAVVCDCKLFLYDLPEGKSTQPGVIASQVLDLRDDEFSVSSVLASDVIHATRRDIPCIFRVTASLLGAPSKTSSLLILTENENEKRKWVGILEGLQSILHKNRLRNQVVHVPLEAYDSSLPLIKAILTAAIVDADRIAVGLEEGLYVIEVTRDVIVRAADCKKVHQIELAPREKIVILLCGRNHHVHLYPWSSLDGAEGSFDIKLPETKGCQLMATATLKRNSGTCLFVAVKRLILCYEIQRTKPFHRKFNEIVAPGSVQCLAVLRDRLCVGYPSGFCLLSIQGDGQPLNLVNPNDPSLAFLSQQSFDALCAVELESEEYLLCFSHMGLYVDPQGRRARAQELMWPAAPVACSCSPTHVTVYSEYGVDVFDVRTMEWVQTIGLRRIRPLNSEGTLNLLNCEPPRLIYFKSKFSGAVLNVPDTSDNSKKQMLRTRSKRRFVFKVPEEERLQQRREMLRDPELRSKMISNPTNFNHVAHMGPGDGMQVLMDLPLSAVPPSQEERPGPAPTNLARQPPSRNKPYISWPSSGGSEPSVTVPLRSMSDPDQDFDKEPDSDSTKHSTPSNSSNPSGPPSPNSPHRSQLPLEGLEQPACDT
Chain of Mitogen-activated protein kinase 8 (P45983 whole entry): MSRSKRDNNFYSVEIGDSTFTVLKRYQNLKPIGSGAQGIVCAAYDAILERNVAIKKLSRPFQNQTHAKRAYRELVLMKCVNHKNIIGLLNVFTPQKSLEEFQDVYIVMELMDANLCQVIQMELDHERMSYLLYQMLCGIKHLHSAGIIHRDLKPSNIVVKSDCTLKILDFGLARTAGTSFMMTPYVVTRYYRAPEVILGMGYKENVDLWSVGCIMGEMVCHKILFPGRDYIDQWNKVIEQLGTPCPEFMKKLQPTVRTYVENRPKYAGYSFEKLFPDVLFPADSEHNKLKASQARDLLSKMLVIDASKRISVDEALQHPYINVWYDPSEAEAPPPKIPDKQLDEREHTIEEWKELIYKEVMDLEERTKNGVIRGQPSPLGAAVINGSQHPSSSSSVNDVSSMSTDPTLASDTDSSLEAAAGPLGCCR
Chain of Tyrosine-protein kinase ABL1 (Homo sapiens), P00519 [F317I] (P00519 whole entry F317I): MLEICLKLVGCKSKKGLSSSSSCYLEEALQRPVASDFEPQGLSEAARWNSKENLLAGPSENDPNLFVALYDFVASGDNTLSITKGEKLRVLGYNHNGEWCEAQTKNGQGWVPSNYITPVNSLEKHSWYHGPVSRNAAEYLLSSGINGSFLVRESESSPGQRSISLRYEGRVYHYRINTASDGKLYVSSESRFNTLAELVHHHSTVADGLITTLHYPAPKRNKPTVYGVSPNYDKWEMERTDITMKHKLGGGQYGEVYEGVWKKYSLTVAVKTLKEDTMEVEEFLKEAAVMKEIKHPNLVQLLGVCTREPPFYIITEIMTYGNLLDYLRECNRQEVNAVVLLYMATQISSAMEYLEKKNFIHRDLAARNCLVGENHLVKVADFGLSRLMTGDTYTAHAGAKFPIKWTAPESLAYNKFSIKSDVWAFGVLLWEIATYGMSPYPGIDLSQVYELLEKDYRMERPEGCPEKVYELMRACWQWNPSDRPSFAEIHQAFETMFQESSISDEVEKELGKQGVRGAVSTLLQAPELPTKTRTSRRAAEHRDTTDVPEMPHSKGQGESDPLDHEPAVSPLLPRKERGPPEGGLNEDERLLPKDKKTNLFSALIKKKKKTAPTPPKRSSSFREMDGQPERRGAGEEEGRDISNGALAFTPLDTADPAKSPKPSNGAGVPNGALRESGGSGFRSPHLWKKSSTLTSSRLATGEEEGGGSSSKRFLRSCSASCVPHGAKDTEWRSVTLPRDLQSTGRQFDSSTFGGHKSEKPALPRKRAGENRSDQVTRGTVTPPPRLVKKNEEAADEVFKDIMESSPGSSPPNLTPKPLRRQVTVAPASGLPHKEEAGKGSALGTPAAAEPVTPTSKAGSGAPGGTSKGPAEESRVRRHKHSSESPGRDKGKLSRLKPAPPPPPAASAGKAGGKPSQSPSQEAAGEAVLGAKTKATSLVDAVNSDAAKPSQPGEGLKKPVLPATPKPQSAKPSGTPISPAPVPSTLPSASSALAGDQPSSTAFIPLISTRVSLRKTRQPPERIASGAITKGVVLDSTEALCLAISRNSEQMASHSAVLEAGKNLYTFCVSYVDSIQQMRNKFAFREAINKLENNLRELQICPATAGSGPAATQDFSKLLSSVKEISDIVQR

For `Cc1cc([C@@H](C)Nc2ccccc2C(=O)O)c2nc(N3CCOCC3)cc(=O)n2c1` [AZD-6482], the % of control in experiment [1] is 100%; in experiment [2], 100%; in [3], 96%; in experiment [4], 100%.

For `O=C(NOC[C@H](O)CO)c1ccc(F)c(F)c1Nc1ccc(I)cc1F`, in experiment [5], the % of control was determined as 74%.

Molecule `N#Cc1cccc(-c2c[nH]c3ncnc(N4CCOCC4)c23)c1` gave a % of control in experiment [6] of 62%.

The molecule `CC[C@@H]1[C@H](F)C(=O)N[C@@H]1COc1nccc2cc(C(N)=O)c(OC)cc12` [ZIMLOVISERTIB] came in with a % of inhibition at Aurora kinase B of 11.3%.

As to `COc1cc(Nc2nc(C)cc(-c3cnn4nc(OC)ccc34)n2)cc(C(F)(F)F)c1`, in experiment [7], the % of control came out at 85%.

For the molecule `CCC(=O)N1CCN(c2ccc(-n3c(=O)ccc4cnc5ccc(-c6cnc7ccccc7c6)cc5c43)cc2C(F)(F)F)CC1`, the % of control in experiment [8] stood at 22%.
